Laboratory results: patent US20110251258A1, “RNAI CONSTRUCTS AND USES THEREOF” (RXi Pharmaceuticals Corporation, priority 2008, published 2011)

Assays:
[1] = test system: PPIB; settings: for PPIB gene silencing activity (in words): transfection assay as in Example I; for EC50: PPIB expression, HEK293, 48 hours after transfection, dose response with RISC-Free filler; for relative expression of PPIB remaining after transfection: HEK293, 48 hour incubation, even at 10 nM, compared to negative control 10837 and UTC; for activity at sub-nano molar concentrations / target gene expression at about 0.1 nM: HEK293, with RISC-Free filler; for EC50 fold higher than that of the 25-mer dsRNA 10460: from the EC50 table of Example III
From the text: Positive and negative controls were also included. As shown and described in FIG. 4, construct prepared from single-stranded polynucleotide 10837 (SEQ ID NO: 6) was used as a negative control. […] This structure, denoted as construct 10460 (5′P-mCmUmCm[…]mAmAmAmA-3′, SEQ ID NO: 7) in this example, contains 2′-O-methyl modified bases on 4 of the outermost positions at both ends of the sequence.
(§1) All constructs were transfected into HEK293 cells using the LIPOFECTAMINE™ RNAiMAX reagent (Invitrogen Corp., Carlsbad, Calif.) according to manufacture's instructions. In brief, RNA was diluted to a 12× concentration and then combined with a 12× concentration of LIPOFECTAMINE™ RNAiMAX to complex. The RNA and transfection reagent were allowed to complex at room temperature for 20 minutes to yield a 6× concentration. While complexing, HEK293 cells were washed, trypsinized and counted. The cells were diluted to a concentration recommended by the manufacturer which was at 1×10^5 cells/ml. When RNA has completed complexing with the RNAiMAX transfection reagent, 20 μl of the complexes were added to the appropriate well of the 96-well plate in triplicate. Cells were added to each well (100 μl volume) to make the final cell count per well at 1×10^4 cells/well. The volume of cells diluted the 6× concentration of complex to 1× which was equal to 50, 25, or 10 nM. Cells were incubated for 48 hours under normal growth conditions. After 48 hour incubation, cells were lysed and gene silencing activity was measured using the Panomics […]™ assay which employs bDNA hybridization technology. The assay was carried out according to manufacturer's instructions.
Active RNAi construct stocks at 100 or 10 μM were used to make a 3 μM working dilution in RNA Buffer (1:33.333 dilution) by mixing 30 μl of a 10 μM stock+70 μl RNA Buffer. Diluted RNAi compound plates were prepared in a 96 well plate of 0.2 mL PCR tubes as follows:
a. 50 nM Condition (dilute RNA compound to 12× or to 600 nM in OptiMEM, Reduced Serum Medium, Invitrogen Corp., Carlsbad, Calif.): • i. Add 80 μl of OptiMEM to each well • ii. Add 20 μl of working stock RNAi compound (3 μM) to each well with OptiMEM
b. 25 nM Condition (dilute RNA to make 12× or to 300 nM in OptiMEM): • i. Add 50 μl of OptiMEM to each well • ii.
c. 10 nM Condition (dilute RNA compound to 12× or to 120 nM in OptiMEM): • i. Add 30 μl of OptiMEM to each well • ii.
A bulk amount of diluted RNAiMAX and LIPOFECTAMINE™ were made as follows:
a. 1,470 μl Opti-MEM+30 μl RNAiMAX
c. Combine RNAiMAX and Opti-MEM, Lipofectamine and Opti-MEM, mix gently.
Diluted RNAiMAX or LIPOFECTAMINE™ (35 μl each) was added to each 0.2 ml PCR well. Then, 35 μl of diluted RNAi compound from the RNA plate (above) was also added to each well. Each well contained enough for duplicates at a given dose. Each reaction mixture was gently mixed by pipetting up and down 3 times. The mixture was allowed to complex for at least 15 minutes at room temperature. Meanwhile, a suspension of cells at 1×10^5 cells/ml was prepared. After 15 minutes, 20 μl of complexed RNAi was added to each tissue-culture treated 96-well using a multi-channel pipettor. The prepared cell suspension was added to each reaction at a final volume of 1×10^4 cells (100 μl of cell suspension) and allowed to incubate for 48 hours at 37° C., 10% CO2.
Constructs 10460 (SEQ ID NO: 7, see above, a 25-bp double-stranded RNA with blunt ends) and 10167.2 (a 21-bp double-stranded RNA) were included as positive controls. Untransfected control (UTC) was included as a negative control. Transfections were performed as in Example I or according to the manufactures' recommendation. Each construct (except for the UTC) was transfected at a final concentration of about 50 nM, 25 nM, 10 nM, 5 nM, and 1 nM.
The RISC-Free filler is a commercially available control.

[2] = test system: MAP4K4
Experimental: as §1

| Substance | PPIB gene silencing activity (in words) [1] | PPIB silencing potency compared with another construct [1] | EC50 [1] | also measured |
| --- | --- | --- | --- | --- |
| SS: G.G.A.A.A.G.A.C.U.G.U.U.C.C.A.A. A.A.A AS: U.U.U.U.U.G.G.A.A.C.A.G.U. [compound 12000, reference compound] | essentially inactive | – | – | – |
| SS: P.mC.mU.mC.mU.U.C.G.G.A.A.A.G. A.C.U.G.U.U.C.C.A.mA.mA.mA.mA AS: U.U.U.U.U.G.G.A.A.C.A.G.U.C.U.U. U.C.C.G.A.A.G.A.G [compound 10460, reference compound] | – | more potent than the dsRNA construct 10463 | 0.014 nM | – |
| U.A.G.A.C.U.U.C.C.A.C.A.G.A.I.I.U. I.I.A.A.G.U.C.U.A [compound 11993] | – | – | – | MAP4K4 gene silencing activity (in words) [2]: ineffective |
| U.U.A.C.A.C.G.A.U.G.G.A.A.U.U.U. G.C.U.C.C.A.U.C.G.U.G.U.A.A [compound 12004] | – | less effective | – | – |
| U.U.A.C.A.C.G.A.U.G.G.A.A.U.U.U. G.C.U.U.U.C.C.A.U.C.G.U.G.U.A.A. [compound 12003] | – | less effective | – | – |
| U.U.U.U.U.G.G.A.A.C.A.G.U.C.U.U. U.C.C.A.C.U.G.U.U.C.C.A.A.A.A.A [compound 11975] | – | more potent that those designed based on the 10463 sequence (12003 and 12004) | – | – |
| U.U.U.U.U.G.G.A.A.C.A.G.U.C.U.U. U.C.C.U.G.U.U.C.C.A.A.A.A.A [compound 11976] | – | more potent that those designed based on the 10463 sequence (12003 and 12004) | – | – |
| UUUUUGGAACAGUCUUUCCACUGUUCCAAAAA [compound 10833] | can inhibit PPIB expression | – | 0.599 nM | relative expression of PPIB remaining after transfection [1]: dramatically decrease PPIB expression; activity at sub-nano molar concentrations [1]: remained partially active; target gene expression at about 0.1 nM [1]: at least negative control level; EC50 fold higher than that of the 25-mer dsRNA 10460 [1]: about 60 fold |
| UUUUUGGAACAGUCUUUCCUGUUCCAAAAA [compound 10834] | can inhibit PPIB expression | – | 1.54 nM | relative expression of PPIB remaining after transfection [1]: dramatically decrease PPIB expression; activity at sub-nano molar concentrations [1]: remained partially active; target gene expression at about 0.1 nM [1]: at least negative control level; EC50 fold higher than that of the 25-mer dsRNA 10460 [1]: about 110 fold |
